Patent US6399659B2, “Hydrazine oxoacetamide derivative and insecticide” (Agro-Kanesho Co., Ltd., priority 1998, dated 2002)

Tests used:
Assay type in all cases: in vivo
Spodoptera litura = test: Effect on Spodoptera litura, sprayed Chinese cabbage leaves, death rate; details: third-instar larvae, 48 hours
Description: An emulsion was prepared from each of the present compounds listed below, in the same manner as that of Preparation Example 2. The obtained emulsion was diluted with water so that the concentration of the present compound would be 50 ppm, 5 ppm or 0.5 ppm to obtain diluted aqueous emulsions.
The diluted aqueous emulsions were sprayed on leaves of Chinese cabbages of a 3-4 leave stage. After drying with air, the leaves were placed in a plastic vessel having a size of 21 cm×13 cm×3 cm (depth). Ten third-instar larvae of Spodoptera litura were released in the vessel. The vessel was closed and placed in a room kept at a constant temperature of 26. 48 hours after, the numbers of surviving and dead ones were counted, and the death rate was calculated.

Plutella xylostella = test: Effect on Plutella xylostella, sprayed Chinese cabbage leaves, death rate; details: third-instar larvae, 48 hours
Description: Emulsions of varied concentrations prepared in the same manner as that of the above Biological Test Example 1 were sprayed on leaves of Chinese cabbages of a 3-4 leave stage. After drying with air, the leaves were placed in a plastic vessel having a size of 9 cm (inside diameter)×6.5 cm (depth). Ten third-instar larvae of Plutella xylostella were released in the vessel. The vessel was closed and placed in a room kept at a constant temperature of 26. 48 hours after, the numbers of surviving and dead ones were counted, and the death rate was calculated. The results are shown in following Table 7 together with those obtained with comparative compounds.

Mamestra brassicae = test: Effect on Mamestra brassicae, insecticidal activity as in Biological Test Example 1
[1] = Peroral acute toxicity for mouse; details: 300 mg/kg peroral, male ICR mice, 7 days observation
Description: Each of the present compounds was suspended in a 0.5% aqueous carboxymethylcellulose solution to obtain a suspension of a predetermined concentration. Male SIc:ICR mice (SPF) of 6 weeks old (body weight: 29.5 to 34.4 g) were fasted for 3 hours. 1 ml, per 100 g of the body weight, of the suspension was forcibly fed into the stomach of each mouse. Then, a food and water were given to the mice and they were bred in a cage. The observation period after the administration was 7 days. During that period, the life and death, general conditions and change in body weight of the mice were observed. Thereafter, pathologico-anatomic experiments were carried out (two mice in each group).

Molecule | death rate (Spodoptera litura; 0.5 ppm) [%] | death rate (Spodoptera litura; 5 ppm) [%] | death rate (Spodoptera litura; 50 ppm) [%] | death rate (Plutella xylostella; 0.5 ppm) | death rate (Plutella xylostella; 5 ppm) | death rate (Plutella xylostella; 50 ppm) | insecticidal activity (death rate) (Mamestra brassicae; 1.25 ppm) [%] | insecticidal activity (death rate) (Mamestra brassicae; 2.5 ppm) [%] | insecticidal activity (death rate) (Mamestra brassicae; 50 ppm) [%] | life and death, general conditions [1]
4-[(4-chlorophenyl)-(ethylaminoxalyl-hydrazono)-methyl]phenyl trifuoromethanesulfonate [Compound 1-5] | 100 | 100 | 100 | 0 | 100 | 100 | 89 | 100 | 100 | Neither death nor abnormality of the general conditions was recognized
COC(=O)C(=O)N/N=C(/c1ccc(Cl)cc1)c1ccc(OS(C)(=O)=O)cc1 [Comparative compound C, reference compound] | – | 0 | 100 | – | – | – | – | – | – | –
CNC(=O)C(=O)NN=C(c1ccc(Cl)cc1)c1ccc(OS(=O)(=O)C(F)(F)F)cc1 [Compound 1-3, 4-[(4-chlorophenyl)-(methylaminoxalyl-hydrazono)-methyl]-phenyl trifluoromethanesulfonate] | 50 | 100 | 100 | 0 | 100 | 100 | 67 | 89 | 100 | –
CCCNC(=O)C(=O)NN=C(c1ccc(Cl)cc1)c1ccc(OS(=O)(=O)C(F)(F)F)cc1 [Compound 1-7] | 70 | 100 | 100 | – | – | – | 50 | 70 | 100 | –
C=CCNC(=O)C(=O)NN=C(c1ccc(Cl)cc1)c1ccc(OS(=O)(=O)C(F)(F)F)cc1 [Compound 1-27] | 70 | 100 | 100 | – | – | – | 80 | 100 | 100 | –
C#CCNC(=O)C(=O)NN=C(c1ccc(Cl)cc1)c1ccc(OS(=O)(=O)C(F)(F)F)cc1 [Compound 1-37] | 60 | 100 | 100 | – | – | – | 70 | 100 | 100 | –
O=C(NN=C(c1ccc(Cl)cc1)c1ccc(OS(=O)(=O)C(F)(F)F)cc1)C(=O)NC1CC1 [Compound 1-43] | 90 | 100 | 100 | – | – | – | 33 | 67 | 100 | –
CN(C)C(=O)C(=O)N/N=C(/c1ccc(Cl)cc1)c1ccc(OS(=O)(=O)C(F)(F)F)cc1 [Compound 1-133] | 90 | 100 | 100 | – | – | – | 44 | 100 | 100 | –
CNC(=O)C(=O)N(C)N=C(c1ccc(Cl)cc1)c1ccc(OS(=O)(=O)C(F)(F)F)cc1 [Compound 1-178] | 30 | 100 | 100 | – | – | – | – | – | – | –
CNC(=O)C(=O)NN=C(c1ccc(Br)cc1)c1ccc(OS(=O)(=O)C(F)(F)F)cc1 [Compound 1-515] | 75 | 100 | 100 | – | – | – | 60 | 80 | 100 | –
CCNC(=O)C(=O)NN=C(c1ccc(Br)cc1)c1ccc(OS(=O)(=O)C(F)(F)F)cc1 [Compound 1-517] | 60 | 100 | 100 | – | – | – | 100 | 100 | 100 | –
O=C(NN=C(c1ccc(Br)cc1)c1ccc(OS(=O)(=O)C(F)(F)F)cc1)C(=O)NC1CC1 [Compound 1-555] | 40 | 100 | 100 | – | – | – | – | – | – | –
CCNC(=O)C(=O)NN=C(c1ccc(Cl)cc1)c1ccc(CSC(F)(F)F)cc1 [Compound 2-6] | 50 | 100 | 100 | – | – | – | – | – | – | –
